The results in this text go back to PubChem BioAssay AID236 (DTP/NCI, 2004).

“And” between values parts separate entries of the source, which are not always exact repeats. Identical values can stand only once. Toxic doses and inconclusive results are not listed.

For this assay, the system named is AK4 lymphoid leukemia ip, C3AKF1 mice, survival. Kind of assay: NCI In Vivo Anticancer Drug Screen. Data for tumor model AK4 Lymphoid Leukemia (intraperitoneal) in C3AKF1 (CHKRF1) mice. Conditions: endpoint: median survival time, higher = longer survival. The method, then:
The antitumor activity of compounds was measured in mice bearing transplantable tumors. Survival or tumor size were measured and the results are expressed as the measurement made in the treated group (T) divided by the measurement made in the vehicle treated control group (C). The tumor model used in this assay is AK4 Lymphoid Leukemia (intraperitoneal) in C3AKF1 (CHKRF1) mice

Where [1] appears, read: dose: 6.0 mg/kg/injection, schedule: Q01DX010 (ip), vehicle: saline.
Setting [2] is: dose: 12.0 mg/kg/injection, schedule: Q01DX010 (ip), vehicle: saline.
Setting [3] is: dose: 18.0 mg/kg/injection, schedule: Q01DX010 (ip), vehicle: saline.
[4] abbreviates: dose: 0.5 mg/kg/injection, schedule: Q01DX010 (ip), vehicle: saline.
Setting [5] is: dose: 1.0 mg/kg/injection, schedule: Q01DX010 (ip), vehicle: saline.
Where [6] appears, read: dose: 2.0 mg/kg/injection, schedule: Q01DX010 (ip), vehicle: saline.
The mark [7] stands for this setting: dose: 125.0 micrograms/kg/injection, schedule: Q01DX010 (ip), vehicle: saline.
[8] abbreviates: dose: 250.0 micrograms/kg/injection, schedule: Q01DX010 (ip), vehicle: saline.
Where [9] appears, read: dose: 500.0 micrograms/kg/injection, schedule: Q01DX010 (ip), vehicle: saline.
The mark [10] stands for this setting: dose: 8.0 mg/kg/injection, schedule: Q01DX010 (ip), vehicle: saline.
Where [11] appears, read: dose: 60.0 mg/kg/injection, schedule: Q01DX010 (ip), vehicle: saline.
[12] abbreviates: dose: 12.5 mg/kg/injection, schedule: Q01DX010 (ip), vehicle: saline.
Where [13] appears, read: dose: 25.0 mg/kg/injection, schedule: Q01DX010 (ip), vehicle: saline.
Setting [14] is: dose: 50.0 mg/kg/injection, schedule: Q01DX010 (ip), vehicle: saline.
The mark [15] stands for this setting: dose: 100.0 mg/kg/injection, schedule: Q01DX010 (ip), vehicle: saline.
[16] abbreviates: dose: 62.5 micrograms/kg/injection, schedule: Q01DX010 (ip), vehicle: saline.
Setting [17] is: dose: 4.0 mg/kg/injection, schedule: Q01DX010 (ip), vehicle: saline.
The mark [18] stands for this setting: dose: 5.0 mg/kg/injection, schedule: Q01DX010 (ip), vehicle: saline.
[19] abbreviates: dose: 10.0 mg/kg/injection, schedule: Q01DX010 (ip), vehicle: saline.

`O=C(Nc1ccc(C2=NCCN2)cc1)c1ccc(C(=O)Nc2ccc(C3=NCCN3)cc2)c([N+](=O)[O-])c1`: the T/C under setting [1] is 150 % of control; the T/C under setting [2] was 155 % of control and 210 % of control; the T/C under setting [3] was 100 % of control and 240 % of control.

For the compound `C[n+]1c2ccccc2nc2c(N)cc(N)cc21`, the T/C was 106 % of control under setting [2]; 106 % of control under setting [3]; 100 % of control (dose: 27.0 mg/kg/injection, schedule: Q01DX010 (ip), vehicle: saline).

As for `C1CN1c1nc(N2CC2)nc(N2CC2)n1`, the T/C by setting is: (dose: 0.25 mg/kg/injection, schedule: Q01DX010 (ip), vehicle: saline) 116 % of control; under setting [4], 150 % of control; under setting [5], 111 % of control.

Turning to `CC(=O)NC1=C(N2CC2)C(=O)C(NC(C)=O)=C(N2CC2)C1=O`, the T/C was 152 % of control under setting [4]; 152 % of control under setting [5]; 88 % of control under setting [6]; 100 % of control under setting [7]; 111 % of control under setting [8]; 116 % of control under setting [9].

With `O=C(Nc1ccc(C2=NCCN2)cc1)c1cccc(C(=O)Nc2ccc(C3=NCCN3)cc2)c1`, the T/C under setting [10] is 115 % of control; the T/C (dose: 16.0 mg/kg/injection, schedule: Q01DX010 (ip), vehicle: saline) is 150 % of control and 165 % of control; the T/C (dose: 32.0 mg/kg/injection, schedule: Q01DX010 (ip), vehicle: saline) is 205 % of control and 210 % of control; the T/C (dose: 64.0 mg/kg/injection, schedule: Q01DX010 (ip), vehicle: saline) was 235 % of control and 245 % of control.

Take `CN(N=O)C(=O)NC(C=O)C(O)C(O)C(O)CO` (centres undefined): the T/C under setting [11] is 150 % of control and the T/C (dose: 90.0 mg/kg/injection, schedule: Q01DX010 (ip), vehicle: saline) was 150 % of control.

Turning to `COS(C)(=O)=O`, the T/C is 100 % of control and 105 % of control under setting [12]; 100 % of control under setting [13]; 88 % of control and 116 % of control under setting [14]; 100 % of control and 111 % of control under setting [15].

As to `C[C@]12C=CC(=O)C=C1CC[C@@H]1[C@@H]2[C@@H](O)C[C@@]2(C)[C@H]1CC[C@]2(O)C(=O)CO`, the T/C (dose: 12.5 mg/kg/injection, schedule: Q01DX010 (sc), vehicle: steriod suspending solution) is 90 % of control and 110 % of control; the T/C (dose: 25.0 mg/kg/injection, schedule: Q01DX010 (sc), vehicle: steriod suspending solution) is 95 % of control; the T/C (dose: 50.0 mg/kg/injection, schedule: Q01DX010 (sc), vehicle: steriod suspending solution) is 100 % of control and 105 % of control; the T/C (dose: 100.0 mg/kg/injection, schedule: Q01DX010 (sc), vehicle: steriod suspending solution) is 90 % of control.

For `N#Cc1cn(C2OC(CO)C(O)C2O)c2ncnc(N)c12` (centres undefined), the T/C by setting is: (dose: 31.3 micrograms/kg/injection, schedule: Q01DX010 (ip), vehicle: saline) 100 % of control; under setting [16], 100 % of control; under setting [7], 118 % of control; under setting [8], 100 % of control.

Take `NC(Cc1c[nH]c2ccc(N(CCCl)CCCl)cc12)C(=O)O` (centres undefined): the T/C under setting [6] is 156 % of control and the T/C under setting [17] is 175 % of control.

In the case of `CN(C)[C@@H]1C(=O)C(C(N)=O)=C(O)[C@@]2(O)C(=O)C3=C(O)c4c(O)cccc4C[C@H]3C[C@@H]12`, the T/C runs as follows: (dose: 7.5 mg/kg/injection, schedule: Q01DX010 (ip), vehicle: saline) 100 % of control; (dose: 15.0 mg/kg/injection, schedule: Q01DX010 (ip), vehicle: saline) 100 % of control and 105 % of control; (dose: 30.0 mg/kg/injection, schedule: Q01DX010 (ip), vehicle: saline) 100 % of control; under setting [11], 94 % of control.

Turning to `N#[N+]c1cnc([O-])[nH]c1=O`, the T/C is, setting by setting: (dose: 1.25 mg/kg/injection, schedule: Q01DX010 (ip), vehicle: saline) 100 % of control; (dose: 2.5 mg/kg/injection, schedule: Q01DX010 (ip), vehicle: saline) 100 % of control; under setting [18], 100 % of control; under setting [19], 100 % of control.

Turning to `O=C1C(NC(=O)C2CCCCC2)=C(N2CC2)C(=O)C(NC(=O)C2CCCCC2)=C1N1CC1`, the T/C is, setting by setting: under setting [13], 90 % of control; under setting [14], 95 % of control and 100 % of control; under setting [15], 95 % of control and 100 % of control; (dose: 200.0 mg/kg/injection, schedule: Q01DX010 (ip), vehicle: saline) 100 % of control and 110 % of control; (dose: 400.0 mg/kg/injection, schedule: Q01DX010 (ip), vehicle: saline) 116 % of control.

In the case of `COc1cc(-c2ccc(Nc3ccccc3C(=O)O)c(OC)c2)ccc1Nc1ccccc1C(=O)O`, the T/C reads like this: under setting [12], 112 % of control; under setting [13], 112 % of control and 122 % of control; under setting [15], 162 % of control.

For `CN(C)c1ccc(/C=C/c2ccnc3ccccc23)cc1`, the T/C reads like this: under setting [18], 111 % of control; under setting [19], 105 % of control; (dose: 20.0 mg/kg/injection, schedule: Q01DX010 (ip), vehicle: saline) 94 % of control; (dose: 40.0 mg/kg/injection, schedule: Q01DX010 (ip), vehicle: saline) 100 % of control.

Turning to `COc1ccc2c(c1OC)C(=O)O[C@@H]2[C@H]1c2c(cc3c(c2OC)OCO3)CCN1C`, the T/C is 100 % of control (dose: 0.9 mg/kg/injection, schedule: Q01DX010 (ip), vehicle: saline); 87 % of control (dose: 1.9 mg/kg/injection, schedule: Q01DX010 (ip), vehicle: saline); 87 % of control (dose: 3.9 mg/kg/injection, schedule: Q01DX010 (ip), vehicle: saline); 111 % of control and 87 % of control (dose: 7.8 mg/kg/injection, schedule: Q01DX010 (ip), vehicle: saline); 100 % of control (dose: 15.6 mg/kg/injection, schedule: Q01DX010 (ip), vehicle: saline); 100 % of control (dose: 31.3 mg/kg/injection, schedule: Q01DX010 (ip), vehicle: saline). Also, the T/C runs as follows: (dose: 62.5 mg/kg/injection, schedule: Q01DX010 (ip), vehicle: saline) 94 % of control; (dose: 125.0 mg/kg/injection, schedule: Q01DX010 (ip), vehicle: saline) 88 % of control; (dose: 250.0 mg/kg/injection, schedule: Q01DX010 (ip), vehicle: saline) 88 % of control.

Turning to `CS(=O)(=O)OCCN(CCOS(C)(=O)=O)c1ccc(N=O)cc1`, the T/C runs as follows: under setting [4], 111 % of control; under setting [5], 111 % of control; under setting [6], 94 % of control; under setting [17], 88 % of control; under setting [16], 110 % of control; under setting [7], 115 % of control. Also, the T/C is, setting by setting: under setting [8], 115 % of control; under setting [9], 115 % of control.

For the compound `S=P(N1CC1)(N1CC1)N1CC1`, the T/C (dose: 0.75 mg/kg/injection, schedule: Q01DX010 (ip), vehicle: saline) is 104 % of control and 105 % of control; the T/C (dose: 1.5 mg/kg/injection, schedule: Q01DX010 (ip), vehicle: saline) was 100 % of control and 105 % of control; the T/C (dose: 3.0 mg/kg/injection, schedule: Q01DX010 (ip), vehicle: saline) is 95 % of control and 104 % of control; the T/C under setting [1] was 105 % of control and 109 % of control.

`CN1CC[C@]23c4c5ccc(O)c4O[C@H]2C(=O)CC[C@H]3[C@H]1C5`: the T/C under setting [4] is 94 % of control; the T/C under setting [5] was 105 % of control; the T/C under setting [6] was 94 % of control; the T/C under setting [17] was 88 % of control and 94 % of control; the T/C under setting [10] was 88 % of control.

As for `CSCS(=O)C[C@H](CO)NC(=O)/C=C/c1c(C)[nH]c(=O)[nH]c1=O` (some centres undefined), the T/C under setting [7] is 93 % of control, the T/C under setting [8] is 87 % of control and the T/C under setting [9] was 87 % of control.
